Experimental data published in patent US20070272777A1 (priority 2005, published 2007).
Read-outs that look alike come from different tables or passages of the source.

Legend:
[1] = biological target: T1, serotonin 5-HT1A receptor (Homo sapiens, UniProt P08908); settings: cited from earlier work
T1 sequence (P08908 1-422): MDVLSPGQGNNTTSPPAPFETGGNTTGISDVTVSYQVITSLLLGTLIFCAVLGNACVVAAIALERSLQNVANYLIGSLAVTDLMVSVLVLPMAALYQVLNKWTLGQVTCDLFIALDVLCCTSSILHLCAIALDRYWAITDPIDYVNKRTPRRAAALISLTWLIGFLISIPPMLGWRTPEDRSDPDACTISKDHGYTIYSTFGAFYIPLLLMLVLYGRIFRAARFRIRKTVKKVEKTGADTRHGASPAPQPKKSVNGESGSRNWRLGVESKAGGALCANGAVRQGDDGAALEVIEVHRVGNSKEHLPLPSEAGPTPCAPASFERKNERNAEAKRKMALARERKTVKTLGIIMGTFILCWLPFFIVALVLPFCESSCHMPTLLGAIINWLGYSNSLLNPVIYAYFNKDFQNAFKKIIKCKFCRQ

[2] = biological target: serotonin 5-HT2A receptor (Homo sapiens, UniProt P28223); settings: cited from earlier work
[3] = biological target: T2, serotonin 5-HT2C receptor (Homo sapiens, UniProt P28335); settings: cited from earlier work
T2 sequence (P28335 33-458): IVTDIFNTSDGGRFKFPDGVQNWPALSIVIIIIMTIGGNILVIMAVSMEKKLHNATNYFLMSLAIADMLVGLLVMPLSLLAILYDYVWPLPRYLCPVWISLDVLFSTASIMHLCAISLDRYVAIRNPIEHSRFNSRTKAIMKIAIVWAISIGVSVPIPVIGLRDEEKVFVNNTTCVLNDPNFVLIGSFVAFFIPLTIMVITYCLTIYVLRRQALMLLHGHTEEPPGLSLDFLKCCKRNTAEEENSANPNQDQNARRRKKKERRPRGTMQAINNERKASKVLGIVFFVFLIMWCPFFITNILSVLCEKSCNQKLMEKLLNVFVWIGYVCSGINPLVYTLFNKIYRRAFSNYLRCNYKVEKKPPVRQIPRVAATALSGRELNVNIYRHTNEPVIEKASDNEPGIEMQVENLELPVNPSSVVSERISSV

α1-adrenergic receptor = settings: cited from earlier work
histamine H1 receptor = histamine H1 receptor (Homo sapiens, UniProt P35367); settings: cited from earlier work
serotonin reuptake site = serotonin reuptake site (Homo sapiens, UniProt P31645); settings: cited from earlier work
[4] = system: cholinergic muscarinic receptors; settings: cited from earlier work
[5] = Text: FIG. 6B illustrates this method. […] The standard may be prepared by mixing specific amounts of Type C and Form II and determining the X-ray diffraction pattern. This method is also illustrated in FIGS. 6A and B which are used to calculate the ratio between the heights of the peaks in the known mixtures. […] A round aluminum sample holder with zero background was used. […] Running in spin/oscillate mode. All peak positions are reported with an error of ±0.2 degrees two theta.
[6] = disclosed in WO 05/058835; cited from earlier work
[7] = prepared by recrystallization from ethanol or heating hydrate at 80° C; according to WO 03/26659; cited from earlier work
[8] = Example 5 (comparative): centrifugal ball mill, 90 minutes at 580 rpm

Chain of histamine H1 receptor (P35367 whole entry): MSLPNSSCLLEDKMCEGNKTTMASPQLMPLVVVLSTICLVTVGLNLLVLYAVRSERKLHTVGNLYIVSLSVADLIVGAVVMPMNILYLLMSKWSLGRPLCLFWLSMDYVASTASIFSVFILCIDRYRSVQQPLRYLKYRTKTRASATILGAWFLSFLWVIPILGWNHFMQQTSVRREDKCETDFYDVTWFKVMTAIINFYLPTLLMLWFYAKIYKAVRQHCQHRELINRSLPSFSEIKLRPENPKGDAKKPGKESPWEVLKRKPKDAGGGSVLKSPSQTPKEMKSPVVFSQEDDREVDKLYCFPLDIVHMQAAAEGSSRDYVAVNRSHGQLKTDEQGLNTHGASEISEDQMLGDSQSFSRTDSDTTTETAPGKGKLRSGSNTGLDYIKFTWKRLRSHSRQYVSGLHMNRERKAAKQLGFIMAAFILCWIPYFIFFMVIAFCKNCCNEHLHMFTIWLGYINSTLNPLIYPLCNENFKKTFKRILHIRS
Chain of serotonin 5-HT2A receptor (P28223 whole entry): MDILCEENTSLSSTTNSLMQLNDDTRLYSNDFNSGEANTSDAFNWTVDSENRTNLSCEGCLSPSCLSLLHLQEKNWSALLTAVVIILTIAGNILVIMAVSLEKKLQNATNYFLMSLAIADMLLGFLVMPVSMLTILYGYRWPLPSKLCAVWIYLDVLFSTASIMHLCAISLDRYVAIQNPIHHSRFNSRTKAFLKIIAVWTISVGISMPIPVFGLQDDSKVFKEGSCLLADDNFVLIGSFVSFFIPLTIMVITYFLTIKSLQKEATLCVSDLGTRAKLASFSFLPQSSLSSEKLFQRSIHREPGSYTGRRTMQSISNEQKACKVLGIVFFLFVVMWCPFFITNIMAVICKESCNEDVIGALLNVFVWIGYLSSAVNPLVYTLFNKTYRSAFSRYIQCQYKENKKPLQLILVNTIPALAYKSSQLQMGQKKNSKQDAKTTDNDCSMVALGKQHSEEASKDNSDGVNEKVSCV
Chain of serotonin reuptake site (P31645 whole entry): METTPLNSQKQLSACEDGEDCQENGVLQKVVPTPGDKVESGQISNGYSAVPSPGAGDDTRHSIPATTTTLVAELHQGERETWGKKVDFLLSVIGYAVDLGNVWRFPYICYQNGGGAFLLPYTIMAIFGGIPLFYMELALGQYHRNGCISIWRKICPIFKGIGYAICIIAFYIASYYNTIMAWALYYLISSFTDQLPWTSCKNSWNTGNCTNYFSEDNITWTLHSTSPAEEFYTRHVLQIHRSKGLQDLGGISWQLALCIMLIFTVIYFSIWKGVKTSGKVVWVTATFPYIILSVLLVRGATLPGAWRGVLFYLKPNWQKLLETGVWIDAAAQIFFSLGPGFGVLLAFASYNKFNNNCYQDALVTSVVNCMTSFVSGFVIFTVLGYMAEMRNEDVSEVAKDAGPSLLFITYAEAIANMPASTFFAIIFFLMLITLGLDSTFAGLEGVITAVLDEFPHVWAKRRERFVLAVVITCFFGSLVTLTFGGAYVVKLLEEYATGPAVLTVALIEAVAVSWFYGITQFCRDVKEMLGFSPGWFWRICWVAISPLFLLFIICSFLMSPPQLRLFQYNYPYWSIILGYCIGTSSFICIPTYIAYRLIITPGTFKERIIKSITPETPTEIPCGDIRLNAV

O=C1CCc2ccc(OCCCCN3CCN(c4cccc(Cl)c4Cl)CC3)cc2N1 [Aripiprazole, 7-{4-[4-(2,3-dichlorophenyl)-1-piperazinyl]-butoxy}-3,4-dihydro-2(1H)-quinolinone]
affinity for serotonin 5-HT1A receptor [1]: high affinity
affinity for serotonin 5-HT2A receptor [2]: high affinity
affinity for serotonin 5-HT2C receptor [3]: moderate affinity
affinity for α1-adrenergic receptor (α1-adrenergic receptor): moderate affinity
affinity for histamine H1 receptor (histamine H1 receptor): moderate affinity
affinity for the serotonin reuptake site (serotonin reuptake site): moderate affinity
affinity for cholinergic muscarinic receptors [4]: no appreciable affinity

O=C1CCc2ccc(OCCCCN3CCN(c4cccc(Cl)c4Cl)CC3)cc2N1 [Aripiprazole Form II, 7-{4-[4-(2,3-dichlorophenyl)-1-piperazinyl]-butoxy}-3,4-dihydro-2(1H)-quinolinone]
Type C content of milled sample by XRD ([5]; Example 1A: conical mill, 470 micron screen, 4710 rpm): less than 5%
Type C content of milled sample by XRD ([5]; Example 1B: conical mill, 830 microns screen, 1315 rpm): less than 5 % by weight
Type C content of milled sample by XRD ([5]; Example 2: ground with mortar and pestle about 1 min): less than 5%
Type C content of milled sample by XRD ([5]; Example 3A: micronizer, Feeding Air 5.0 bars, Grinding Air 4.0 bars): did not contain Type_C
Type C content of milled sample by XRD ([5]; Example 3B: micronizer, Feeding Air 3.0 bars, Grinding Air 2.0 bars): did not contain Type_C
Type C content of milled sample by XRD ([5]; Example 3C: micronizer, 4 kg, Feeding Air 6.0 bars, Grinding Air 5.0 bars): did not contain Type_C
transformation to Type C by XRD ([5]; Example 4A and 4B: frozen at −10° C. to −20° C. 24 hours, conical mill 470 microns/4710 or 830 microns/1315 rpm): not transformed to Type C
Type C content after milling by XRD [5, 8]: stark increase in the content of Type C
crystallinity after milling by XRD [5, 8]: crystallinity of the sample decreased
polymorphic transformation on heating [6]: transformation to Type C

O=C1CCc2ccc(OCCCCN3CCN(c4cccc(Cl)c4Cl)CC3)cc2N1 [anhydride aripiprazole]
hygroscopicity [7]: significantly hygroscopic
